For data set [1], the system named is HCV2a. In words: HCV focus-forming assay (FFA) / HCV IF antiviral assay. In kind it is cell-based, Hepatitis C virus. The method, then: FIG. 1 is a graph of an HCV focus-forming assay. Huh7 cells were pre-treated with compound KIN400 for 24 hours and infected with HCV2a at an multiplicity of infection (MOI) of 0.5 for 48 hours. HCV protein was detected by immunofluorescent staining with viral-specific serum and foci were normalized to negative control cells that were not drug treated (equal to 1).
HCV IF antiviral assay. Huh7 cells are seeded on a 96 well plate at 5×10^3 cells per well and cells are allowed to attach and grow for 24 hours. Compounds that have been diluted to 10 uM in media and contain a final concentration of 0.5% DMSO are added to each well and grown another 24 hours. The compound media solution is removed from the plate and stored in a clean tissue culture dish. Cell monolayers are washed with PBS and HCV2a virus is added at the stated MOI. Virus is incubated for 2-4 hours and then removed, the monolayers are washed with PBS and the compound solutions are replaced into each well.
The cells are grown overnight and then cells are fixed and stained for HCV proteins. All buffers and reagents are used from the Cellomics staining kits described above. Primary serum PHS#72 is diluted 1:3,000 in wash buffer and incubated at room temperature 1 hour. […] The number of infected cells is counted and representative images are saved.

For data set [2], the system named is HCV RNA. In words: Decrease of HCV RNA. In kind it is cell-based, Hepatitis C virus. The method, then: KIN400 compounds are tested for in vitro antiviral activity against HCV 2A and influenza A virus (A/WSN/33). Viral protein and RNA levels are assessed following drug treatment using the assays described above.
Data set [3] in a line: MTS assay to determine cytotoxicity. In kind it is cell-based, human. The note with it: human; Huh7 cells, 24 hours. The procedure: (§1) MTS assay to determine cytotoxicity. Cultured human Huh7 cells are treated with increasing amounts of compound or equivalent amounts of DMSO diluted in media for 24 hours to see their effect on cell viability. The proportion of viable cells is calculated using a cell viability assay that measures conversion of a tetrazolium compound [[…]-5-(3-carboxymethoxyphenyl)-2-(4-sulfophenyl)-2H-tetrazolium, inner salt; MTS] to a colored formazan compound in live cells.
(§2) The conversion of MTS to formazan is detected in a 96-well microtiter plate reader, and the resulting optical densities can be plotted directly to estimate cell viability. […] Compounds were diluted to final concentrations of 0, 5, 10, 20, and 50 uM in media containing 0.5% DMSO. Negative control wells contain no compound and positive control for cytotoxicity is examined using an EMCV infection which causes 100% cytopathic effect. Each compound concentration and control is done in triplicate wells to generate error bars.

In data set [4] the test system is Huh7 cells. Briefly: MTS assay to determine cytotoxicity. It counts as cell-based, human. The method, then: as §1, §2
On the technique in general: Tetrazolium dyes change colour on reduction, which living cells bring about.

Data set [5] has as its system Murine Encephalomyocarditis virus (EMCV). In words: EMCV antiviral assay (cell viability by MTS after infection). It counts as cell-based. The note with it: Huh7 cells, EMCV 250 pfu.
The subject of data set [6] is IRF-3. Briefly: Activation of IRF-3. It counts as cell-based.
The test system of data set [7] is Influenza WSN strain.
Data set [8] relates to Influenza WSN strain. Briefly: microbe, parasite or virus in culture. The note with it: Influenza A virus, A549, read-out: Influenza nucleoprotein (NP) ELISA (IC50).

Read-outs that look alike come from different tables or passages of the source. Some results are limits rather than exact numbers.

As usually defined, the IC50 is the point on the concentration scale where inhibition reaches its midpoint. A word on the CC50: it is the concentration giving 50% cytotoxicity. Read a high CC50 as better tolerance by the cells. As for `N#Cc1c(-c2ccccc2)cc(-c2ccccc2)nc1SCC(=O)N1CCOCC1` [KIN400], the 50% inhibitory concentration (IC50) is 5.1 µM in data set [1] (Hepatitis C virus, Huh-7, Huh7 cells); 5.1 µM in data set [1] (Huh7 cells); 0.2 µM in data set [8]. The “Decrease HCV RNA” value in data set [2] is listed as “Yes”; in data set [2] (listed as KIN100) it was “decrease in HCV RNA”. The compound also came in with a CC50 at 24 h in data set [3] above 50 µM. The same compound yielded a 50% cytotoxic concentration (CC50) in data set [4] above 50 µM. For the same compound, the “cytotoxicity (in words)” value in data set [4] is listed as “low cytotoxicity”. Besides, the Cell viability post-infection is reported as around 0.75 in data set [5] (5 μM), around 0.95 in data set [5] (10 μM) and around 1.05 in data set [5] (20 μM). Besides, in data set [6], the “activation of IRF-3” value was “activation of IRF-3”. In addition, the figures for the “Therapeutic index (TI) (CC50/IC50)” value in data set [7] and in data set [7] (listed as KIN100) were above 10 and 250, respectively. Besides, in data set [7] (influenza virus strain WSN), the “antiviral activity against influenza virus (in words)” value is listed as “antiviral activity against influenza virus”.
